The subject of series [1] is green peach aphid (Myzus persicae). As to the kind of experiment: Test E: control of green peach aphid on radish plant, contact and/or systemic. The format is in vivo. As to conditions: 144 h, sprayed at 250 ppm, visually assessed after 6 days. The source says: For evaluating control of green peach aphid (Myzus persicae) through contact and/or systemic means, the test unit consisted of a small- open container with a 12–15-day-old radish plant inside. This was pre-infested by placing on a leaf of the test plant 30–40 aphids on a piece of leaf excised from a culture plant (cut-leaf method). The larvae moved onto the test plant as the leaf piece desiccated. After pre-infestation, the soil of the test unit was covered with a layer of sand.
(§1) Test compounds were formulated using a solution containing 10% acetone, 90% water and 300 ppm X-77® Spreader Lo-Foam Formula non-ionic surfactant containing alkylarylpolyoxyethylene, free fatty acids, glycols and isopropanol (Loveland Industries, Inc.). The formulated compounds were applied in 1 mL of liquid through a SUJ2 atomizer nozzle with ⅛ JJ custom body (Spraying Systems Co.) positioned 1.27 cm (0.5 inches) above the top of each test unit. All experimental compounds in this screen were sprayed at 250 ppm and replicated three times. After spraying of the formulated test compound, each test unit was allowed to dry for 1 hour and then a black, screened cap was placed on top. The test units were held for 6 days in a growth chamber at 19–21° C. and 50–70% relative humidity. Each test unit was then visually assessed for insect mortality.

For series [2], the system named is cotton melon aphid (Aphis gossypii). The series is described as follows: Test F: control of cotton melon aphid on cotton plant, contact and/or systemic. The format is in vivo. As to conditions: 144 h, sprayed at 250 ppm, visually rated after 6 days. How it is done:
as §1
For evaluating control of cotton melon aphid (Aphis gossypii) through contact and/or systemic means, the test unit consisted of a small open container with a 6–7-day-old cotton plant inside. This was pre-infested with 30–40 aphids on a piece of leaf according to the cut-leaf method described for Test E, and the soil of the test unit was covered with a layer of sand.
Test compounds were formulated and sprayed at 250 ppm as described for Test E. The applications were replicated three times. After spraying, the test units were maintained in a growth chamber and then visually rated as described for Test E.

The test system of series [3] is Potato Leafhopper (Empoasca fabae Harris). As to the kind of experiment: Test H: control of Potato Leafhopper on Longio bean plant, contact and/or systemic. The format is in vivo. As to conditions: 144 h, sprayed at 250 ppm, post-infested with adults, visually assessed after 6 days. On the procedure:
as §1
For evaluating control of Potato Leafhopper (Empoasca fabae Harris) through contact and/or systemic means, the test unit consisted of a small open container with a 5–6 day old Longio bean plant (primary leaves emerged) inside. White sand was added to the top of the soil and one of the primary leaves was excised prior to application. Test compounds were formulated and sprayed at 250 ppm and replicated three times as described for Test E. After spraying, the test units were allowed to dry for 1 hour before they were post-infested with 5 Potato Leafhoppers (18 to 21 day old adults). A black, screened cap is placed on the top of the cylinder. The test units were held for 6 days in a growth chamber at 19–21° C. and 50–70% relative humidity. Each test unit was then visually assessed for insect mortality.

Series [4] deals with Corn Planthopper (Peregrinus maidis). As to the kind of experiment: Test G: control of Corn Planthopper on corn (maize) plant, contact and/or systemic. The format is in vivo. As to conditions: 144 h, sprayed at 250 ppm, post-infested with nymphs, visually assessed after 6 days. How it is done: as §1
For evaluating control of Corn Planthopper (Peregrinus maidis) through contact and/or systemic means, the test unit consisted of a small open container with a 3–4 day old corn (maize) plant (spike) inside. White sand was added to the top of the soil prior to application. […] Each test unit was then visually assessed for insect mortality.

One may read the mortality as the percentage killed. Read a high mortality as a strong lethal effect. A word on the melting point: it is the temperature, or range, at which the solid turns liquid.

Structures are written as SMILES.

Take `CC(C)N1CN(C(=O)c2cc(Cl)nn2-c2ncccc2Cl)c2c(Cl)cc(Cl)cc2C1=O` [Compound 8, 6,8-Dichloro-1-[[3-Chloro-1-(3-Chloro-2-pyridinyl)-1H-pyrazol-5-yl]carbonyl]-2,3-dihydro-3-(1-methylethyl)-4(H)-quinazolinone]: the mortality at 250 ppm in series [1], in series [2] and in series [3] was at least 80% throughout.

Take `CC(C)N1CN(C(=O)c2cc(Br)nn2-c2ncccc2Cl)c2c(Cl)cc(Cl)cc2C1=O` [Compound 9, 1-[[3-Bromo-1-(3-Chloro-2-pyridinyl)-1H-pyrazol-5-yl]carbonyl]-6,8-dichloro-2,3-dihydro-3-(1-methylethyl)-4-(1H)-quinazolinone]: the mortality at 250 ppm in series [1], in series [2] and in series [3] was at least 80% in each case.

For `CC(C)N1CN(C(=O)c2cc(C(F)(F)F)nn2-c2ncccc2Cl)c2c(Cl)cc(Cl)cc2C1=O` [Compound 10, 6,8-Dichloro-1-[[1-(3-Chloro-2-pyridinyl)-3-(trifluoromethyl)-1H-pyrazol-5-yl]carbonyl]-2,3-dihydro-3-(1-methylethyl)-4(1H)-quinazolinone], the mortality at 250 ppm in series [3] was at least 80%.

Consider `CN1CN(C(=O)c2cc(Cl)nn2-c2ncccc2Cl)c2c(Cl)cc(Cl)cc2C1=O` [Compound 11, 6-8-Dichloro-1-[[3-Chloro-1-(3-Chloro-2-pyridinyl)-1H-pyrazol-5-yl]carbonyl]-2,3-dihydro-3-methyl-4(1H)-quinazolinone], for which the mortality at 250 ppm in series [1], in series [2] and in series [3] was at least 80% in each case.

Regarding `CN1CN(C(=O)c2cc(Br)nn2-c2ncccc2Cl)c2c(Cl)cc(Cl)cc2C1=O` [Compound 12, 1-[[3-Bromo-1-(3-Chloro-2-pyridinyl)-1H-pyrazol-5-yl]carbonyl]-6,8-dichloro-2,3-dihydro-3-methyl-4(1H)-quinazolinone], the mortality at 250 ppm in series [1], in series [2], in series [4] and in series [3] was at least 80% each time.

For the compound `CN1CN(C(=O)c2cc(C(F)(F)F)nn2-c2ncccc2Cl)c2c(Cl)cc(Cl)cc2C1=O` [Compound 13, 6,8-Dichloro-1-[[1-(3-Chloro-2-pyridinyl)-3-(trifluoromethyl)-1H-pyrazol-5-yl]carbonyl]-2,3-dihydro-3-methyl-4(1H)-quinazolinone], the mortality at 250 ppm in series [1], in series [2], in series [4] and in series [3] was at least 80% throughout.

Take `Cc1cc(Cl)cc2c1N(C(=O)c1cc(Cl)nn1-c1ncccc1Cl)CN(C(C)C)C2=O` [Compound 14, 6-Chloro-1-[[3-Chloro-1-(3-Chloro-2-pyridinyl)-1H-pyrazol-5-yl]carbonyl]-2,3-dihydro-8-methyl-3-(1-methylethyl)-4(1H)-quinazolinone]: the melting point was 219 to 220 °C.

Turning to `Cc1cc(Cl)cc2c1N(C(=O)c1cc(Br)nn1-c1ncccc1Cl)CN(C(C)C)C2=O` [Compound 15, 1-[[3-Bromo-1-(3-Chloro-2-pyridinyl)-1H-pyrazol-5-yl]carbonyl]-6-Chloro-2,3-dihydro-8-methyl-3-(1-methylethyl)-4-(1H)-quinazolinone], the mortality at 250 ppm in series [2] and in series [3] was at least 80% in each case.

In the case of `Cc1cc(Cl)cc2c1N(C(=O)c1cc(C(F)(F)F)nn1-c1ncccc1Cl)CN(C(C)C)C2=O` [Compound 16, 6-Chloro-1-[[1-(3-Chloro-2-pyridinyl)-3-(trifluoromethyl)-1H-pyrazol-5-yl]carbonyl]-2,3-dihydro-8-methyl-3-(1-methylethyl)-4(1H)-quinazolinone], the mortality at 250 ppm in series [2] and in series [3] was at least 80% each time.

In the case of `Cc1cc(Cl)cc2c1N(C(=O)c1cc(Cl)nn1-c1ncccc1Cl)CN(C)C2=O` [Compound 17, 6-Chloro-1-[[3-Chloro-1-(3-Chloro-2-pyridinyl)-1H-pyrazol-5-yl]carbonyl]-2,3-dihydro-3,8-dimethyl-4(1H)-quinazolinone], the melting point fell in the range of 238 to 240 °C.

As for `Cc1cc(Cl)cc2c1N(C(=O)c1cc(Br)nn1-c1ncccc1Cl)CN(C)C2=O` [Compound 18, 1-[[3-Bromo-1-(3-Chloro-2-pyridinyl)-1H-pyrazol-5-yl]carbonyl]-6-Chloro-2,3-dihydro-3,8-dimethyl-4(1H)-quinazolinone], the melting point was 254 to 255 °C.

For the compound `Cc1cc(Cl)cc2c1N(C(=O)c1cc(C(F)(F)F)nn1-c1ncccc1Cl)CN(C)C2=O` [Compound 19, 6-Chloro-1-[[1-(3-Chloro-2-pyridinyl)-3-(tifluoromethyl)-1H-pyrazol-5-yl]carbonyl]-2,3-dihydro-3,8-dimethyl-4(1H)-quinazolinone], the mortality at 250 ppm in series [1], in series [2] and in series [3] was at least 80% throughout.

Regarding `Cc1cccc2c1N(C(=O)c1cc(Cl)nn1-c1ncccc1Cl)C(C(=O)O)N(C(C)C)C2=O` (centres unmarked) [Compound 20], the melting point was 143 to 190 °C.

As for `O=C1c2cc(Cl)cc(Cl)c2N(C(=O)c2cc(Cl)nn2-c2ncccc2Cl)C(c2cccnc2)N1Cl` (centres unmarked) [Compound 22], the melting point was in the range of 135 to 156 °C.

In the case of `O=C1c2cc(Cl)cc(Cl)c2N(C(=O)c2cc(Cl)nn2-c2ncccc2Cl)C(c2c[nH]cn2)N1Cl` (centres unmarked) [Compound 24], the mortality at 250 ppm in series [3] is at least 80%.

In series [1], `O=C1NCN(C(=O)c2cc(Cl)nn2-c2ncccc2Cl)c2c(Cl)cc(Cl)cc21` [Compound 28, 6,8-Dichloro-1-[[3-Chloro-1-(3-Chloro-2-pyridinyl)-1H-pyrazol-5-yl]carbonyl]-2,3-dihydro-4(1H)-quinazolinone] gave a mortality at 250 ppm of at least 80%.

For the compound `O=C1NCN(C(=O)c2cc(C(F)(F)F)nn2-c2ncccc2Cl)c2c(Cl)cc(Cl)cc21` [Compound 29, 6,8-Dichloro-1-[[1-(3-Chloro-2-pyridinyl)-3-(trifluoromethyl)-1H-pyrazol-5-yl]carbonyl]-2,3-dihydro-4(1H)-quinazolinone], the mortality at 250 ppm in series [1], in series [2] and in series [3] was at least 80% throughout.

The record behind these values is patent US7241767B2, “Quinazoline(di)ones for invertebrate pest control” (E. I. du Pont de Nemours and Company, priority 2002, dated 2007).
